Earlier results, collected in patent US20080113949A1, “Use of dipyridamole in combination with acetylsalicylic acid and an angiotensin II antagonist for stroke prevention” (priority 2003, published 2008).

Settings: clinical study ESPS-2; compared with aspirin

OCCN(CCO)c1nc(N2CCCCC2)c2nc(N(CCO)CCO)nc(N3CCCCC3)c2n1 [dipyridamole, 2,6-bis(diethanolamino)-4,8-dipiperidino-pyrimido[5,4-d]pyrimidine]
reduction of stroke risk: as effective as low-dose aspirin
